{"source": "paper PMC8384862", "about": "“Identification of new target proteins of a Urotensin-II receptor antagonist using transcriptome-based drug repositioning approach” (Scientific Reports, 2021)", "biological_target": "T1, sodium-dependent serotonin transporter (Homo sapiens, UniProt P31645)", "T1 construct": "gene SLC6A4; human recombinant, CHO cell membrane", "T1 sequence (P31645 whole entry)": "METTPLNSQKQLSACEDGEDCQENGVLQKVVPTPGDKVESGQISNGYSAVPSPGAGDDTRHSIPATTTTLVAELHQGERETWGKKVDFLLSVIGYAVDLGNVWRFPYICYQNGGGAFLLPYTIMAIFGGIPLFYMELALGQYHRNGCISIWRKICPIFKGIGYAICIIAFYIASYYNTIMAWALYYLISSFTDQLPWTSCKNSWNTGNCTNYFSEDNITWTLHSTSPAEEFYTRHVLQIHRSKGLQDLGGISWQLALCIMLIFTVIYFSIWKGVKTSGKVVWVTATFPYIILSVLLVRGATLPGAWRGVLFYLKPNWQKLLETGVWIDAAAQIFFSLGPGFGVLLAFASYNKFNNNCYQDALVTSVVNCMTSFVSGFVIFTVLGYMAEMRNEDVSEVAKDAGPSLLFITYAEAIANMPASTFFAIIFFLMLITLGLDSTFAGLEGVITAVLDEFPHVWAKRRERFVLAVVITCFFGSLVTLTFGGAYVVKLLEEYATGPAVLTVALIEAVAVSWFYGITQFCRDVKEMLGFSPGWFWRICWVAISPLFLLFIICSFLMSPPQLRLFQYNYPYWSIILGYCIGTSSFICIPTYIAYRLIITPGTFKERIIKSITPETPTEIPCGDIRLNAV", "test": "radioligand displacement of [3H]imipramine on recombinant CHO cell membranes, single dose […]", "assay_type": "binding", "note": "Where a name gives a salt, the structure may show the parent alone."}
{"compound": "CN(C)c1cccc(NC(=O)N2CCN(Cc3ccc(OC4CCNCC4)c(Br)c3)CC2)c1", "note": "[KR-37524, 4-(3-bromo-4-(piperidin-4-yloxy)benzyl)-N-(3-(dimethylamino)phenyl)piperazine-1-carboxamide dihydrochloride]", "values": [{"measurement": "inhibition at 10 µM", "value": "> 50", "unit": "%"}]}
